Experimental data from US20110305637A1, “RADIOLABELLED PDE10 LIGANDS” (Janssen Pharmaceutica N.V., priority 2009, published 2011).

Tests used:
[1] = Plasma metabolite analysis; type: in vivo; conditions: rat plasma, 60 min p.i.
Protocol: The metabolic stability of [^18F]B-1 was studied in normal rats by determination of the relative amounts of parent tracer and metabolites in the blood at 1 hour p.i. of the tracer. After intravenous (i.v.) administration of about 19 MBq [^18F]B-1 via tail vein under anesthesia (2.5% Isoflurane in O2 at 1 L/min flow rate), rats were sacrificed by decapitation at 60 min p.i. (n=2). Blood was collected in heparin containing tubes (4.5 mL LH PST tubes; BD vacutainer, BD, Franklin Lakes, N.J., USA) and immediately centrifuged for 10 min at 3000 rpm to separate the plasma. […] After passing through UV detector (254 nm), the HPLC eluate was collected as 1-mL fractions using an automatic fraction collector and the radioactivity of these fractions was measured in the γ-counter.
The metabolic stability was assessed in plasma collected from normal rats (n=2) 60 min post injection of [^18F]B-1 using RP-HPLC. […]
The metabolic stability of [^18F]B-2 was studied in normal rats by determination of the relative amounts of parent tracer and metabolites in the blood at 1 hour p.i. of the tracer. […] After passing through UV detector (254 nm), the HPLC eluate was collected as 1-mL fractions using an automatic fraction collector and the radioactivity of these fractions was measured in the γ-counter. […]

[2] = Brain metabolite analysis (cerebrum, cerebellum, not perfused); type: in vivo, rat; conditions: 60 min p.i.
Protocol: (§1) From the same animals that were used for plasma analysis, brain was also dissected and rinsed with saline (Mini Plasco®, Braun, Melsungen, Germany) to rinse off the blood. Cerebrum and cerebellum were collected separately and homogenized in 3 mL and 2 mL of acetonitrile, respectively, for about 3 min. A volume of 1 mL of this homogenate was diluted with an equal volume of water and a part of this homogenate was filtered through 0.22 μm filter (Millex®-GV, Millipore, Ireland). About 0.5 mL of the filtrate was spiked with 5 μL of non-radioactive B-1 solution (1 mg/mL) and then injected on to HPLC, which was connected with an XBridge™ column (C18, […], 3 mm×100 mm, Waters) eluted with mixtures of 0.05 M sodium acetate buffer pH 5.5 and acetonitrile (60:40 v/v) at a flow rate of 0.8 mL/min. Similar to the plasma analysis, the HPLC eluate was collected as 1-mL fractions after passing through UV detector, and the radioactivity in the fractions was measured using the automated gamma counter.
Based on their higher hydrophilicity we can expect that these radiometabolites may not cross the blood brain barrier (BBB). However, in order to rule out the presence or entry of these metabolites to the brain, we have also analyzed cerebrum and cerebellum samples of rats after isolation and subsequent homogenization at 60 min after injection of [^18F]B-1 (n=2).
as §1, with “of non-radioactive B-2 solution (1” for “of non-radioactive B-1 solution (1”, “and acetonitrile (65:35 v/v) at” for “and acetonitrile (60:40 v/v) at”, “passing through the UV detector,” for “passing through UV detector,”
Based on their higher hydrophilicity we can expect that these radiometabolites may not cross BBB. However, in order to rule out the presence or entry of these metabolites to the brain, we have also analyzed cerebrum and cerebellum samples of rats after isolation and subsequent homogenization at 60 min after injection of [^18F]B-2 (n=2).

[18F]CCCn1cc(-c2ccncc2)c(-c2ccc(OCc3ccc4ccccc4n3)cc2)n1 [[^18F]B-1]
Relative percentage of apolar metabolite(s)/components [1]: 1.6 ± 1.5%
Relative percentage of apolar metabolite(s) ([2]; rat cerebellum): 1.4 ± 0.9%
Relative percentage of polar metabolite(s) ([2]; rat cerebellum): 15.3 ± 1.8%
Relative percentage of apolar metabolite(s) ([2]; rat cerebrum): 0.3 ± 0.0%
Relative percentage of polar metabolite(s) ([2]; rat cerebrum): 6.6 ± 2.9%
